Series [1] can be described thus: Equilibrium binding constants (K) of corticosteroids with CAPTISOL (Example 46). The conditions noted are these: CAPTISOL (0.04 M); in M-1 (unit assumed). The source says: (§1) The binding of a corticosteroid to the SAE-CD can be characterized by its equilibrium binding constant. The higher the binding constant, the more tightly the corticosteroid is bound to the SAE-CD.

Series [2] in a line: Equilibrium binding constants (K) of corticosteroids with SBE6.1-γ-CD (Example 46). The conditions noted are these: (SBE)6.1 γ (0.04 M); in M-1 (unit assumed).
Text: as §1

Series [3] is classed as binding. As to the method:
A composition of the invention can comprise SAE-CD, corticosteroid, aqueous liquid carrier, and an antihistamine. In some embodiments, the composition contains SAE-CD, budesonide, water (or aqueous buffer) and azelastine. Example 14 details the preparation of such a composition. Other solutions of azelastine in buffer with varying amounts of SAE-CD, in the absence of budesonide, were prepared and scanned by UV Spectrometer. The change in absorption as a function of SAE-CD concentration was plotted and used to determine the equilibrium binding constant of azelastine with SAE-CD, according to the Benesi-Hildebrand equation. […] The binding constant for budesonide under similar conditions was determined to be about 1000; therefore, azelastine will compete with budesonide, or another corticosteroid, for binding to SAE-CD. Accordingly, the amount of SAE-CD present can be increased to permit complete dissolution of both drugs.
(§2) The equilibrium binding constant of the corticosteroid can change when a second active agent is present in a composition of the invention. Since azelastine hydrochloride (AZ-HCl) has an approximately 10-fold higher binding constant for SBE-β-CD than does budesonide (BUD), the amount of SBE-β-CD present in an aqueous composition of the three needs to be sufficient to solubilize both drugs. Example 19 details a procedure for determination of the phase solubility of budesonide in the presence of varying amounts of azelastine. The results are depicted in FIGS. 11A (for SBE-β-CD) and 11B (for SBE-β-CD and SBE-γ-CD). […] FIG. 11B is a chart of the phase solubility of BUD as a function of SBE-β-CD or SBE-γ-CD concentration in solution using various different concentrations of AZ-HCl (1.00-2.75 mg.mL). […] Thus, increasing the amount of AZ-HCl in the solution decreases the overall solubility of BUD. […] Therefore, it is advantageous to prepare solution compositions of these combinations using SBE-γ-CD due to the efficiency of interaction so as to require less of one SAExCD versus another different SAEyCD to solubilize similar amounts of actives in the presence of each other.

Series [4] is classed as binding.
Text: as §2
This is another data set of the same source.

Series [5] is described as follows: Stability of budesonide R- and S-isomers with and without SBE7-β-CD (Example 13). The format is physicochemical. The conditions noted are these: pH 4 and 6, all temperatures (60° C., 80° C.). How it is done: SAE-CD is also capable of stabilizing the isomers of budesonide to different extents. […] At a given temperature the ratio of rate constants with/without SBE7-β-CD was less at pH 6 than at pH 4. Although SBE7-β-CD stabilized both isomers, the S-isomer appears to be stabilized to an even greater extent than the R. At all temperatures and pHs tested, the ratio of rate constants with/without SBE7-β-CD was lower for the S isomer. The degree of stabilization affected by SBE7-β-CD at 60° C. is greater than at 80° C. An even greater degree of stabilization would be expected at 40° C. and/or room temperature (20-30° C.). […] The loss of budesonide was first order and […]. […] To achieve a concentration of budesonide in the buffers without SBE7-β-CD sufficient for accurate measurement, the budesonide was dissolved first in 100% ethyl alcohol. […] All solution preps and procedures involving budesonide were done in a darkened room under red light. […] The final budesonide concentration was about 50 μg/mL. […] Each solution was aliquoted into individual amber vials. They were then placed in ovens at 60° C. and 80° C. Sample vials were removed from the ovens and analyzed by HPLC at 0, 96, 164, and 288 hours. The HPLC assay conditions are summarized below. […]

Series [6] is described as follows: Phase solubility of budesonide in the presence of SAE-CD and azelastine hydrochloride (Example 19). The format is physicochemical. The settings on record: SBE-β-CD or SBE-γ-CD solutions, pH 4.5 citrate buffer. The source says:
The equilibrium binding constant of the corticosteroid can change when a second active agent is present in a composition of the invention. Since azelastine hydrochloride (AZ-HCl) has an approximately 10-fold higher binding constant for SBE-β-CD than does budesonide (BUD), the amount of SBE-β-CD present in an aqueous composition of the three needs to be sufficient to solubilize both drugs. Example 19 details a procedure for determination of the phase solubility of budesonide in the presence of varying amounts of azelastine. The results are depicted in FIGS. 11A (for SBE-β-CD) and 11B (for SBE-β-CD and SBE-γ-CD). […] FIG. 11B is a chart of the phase solubility of BUD as a function of SBE-β-CD or SBE-γ-CD concentration in solution using various different concentrations of AZ-HCl (1.00-2.75 mg.mL). […] Thus, increasing the amount of AZ-HCl in the solution decreases the overall solubility of BUD. […]
A stock solution of citrate buffer (3 mM, pH 4.5) was prepared. […] Any budesonide remaining suspended in the solutions was removed by filtration and the concentration of budesonide in each solution measured by HPLC as described herein. […]

Series [7] is described as follows: Fluticasone propionate concentration in SBE-Gamma ophthalmic solution, excess drug (Example 36 Method A). The conditions noted are these: 10% w/v SBE-Gamma (D.S.=6.1), 0.01% TWEEN. It counts as physicochemical. As to the method:
A citrate buffer solution at a pH of 4.5 was prepared by mixing various portions of 0.003M citric acid with 0.003M of trisodium citrate. A phosphate buffer solution at a pH of 6.0 was prepared by mixing various portions of 0.003M monobasic sodium phosphate with 0.003M of dibasic sodium phosphate. […] An excess of fluticasone propionate was added to the vials and equilibrated on a rocker for three days. The samples were then filtered using a PVDF 0.22 μm syringe filter. Aliquots of the solutions were placed into clear glass 2 mL serum vials with aluminum crimp caps and Daikyo Flurotec septums. […] The concentration of the pH 6.0 solution was 238 μg/mL.

The nature of series [8]: Phase solubility of corticosteroids with cyclodextrins (Example 23).
A short description of series [9]: Aqueous budesonide/olopatadine/CAPTISOL solution (Example 47). The format is physicochemical. As to the method: An aqueous budesonide/olopatadine solution was prepared. […] Three mM citrate buffer was prepared at pH 4.5. […] Those citrate solutions were mixed to adjust the pH to 4.5. […] The solutions were transferred into 250 mL amber beakers with a magnetic stir disk. The solutions were mixed with a magnetic stir disk at 900 rpm at a temperature of 35° C. Approximately 34 milligrams of budesonide was suspended in each CAPTISOL solution. The samples were mixed with a magnetic stir disk at 900 rpm and 35° C. After 24 hours, the samples were filtered through 0.22 μm PVDF filter. The budesonide in the aliquots was assayed by an HPLC assay method and the concentrations were 340 μg/mL. […] Approximately 27 milligrams of olopatadine HCl was weighed into each of three 2 drams amber vials. The olopatadine HCl was suspended to 4 mL of budesonide/CAPTISOL solutions prepared in Part A. The samples were mixed on a roller mixer at RT. After 24 hours, the samples were filtered through 0.22 μm PVDF filter. The olopatadine and budesonide in the aliquots was assayed by HPLC assay methods, respectively. All olopatadine HCl concentrations were >6.6 mg/mL and all budesonide concentrations were >320 μg/mL. […] Approximately 27 milligrams of olopatadine HCl were weighed into each of three 2 drams amber vials. The olopatadine HCl was suspended to 4 mL of budesonide/CAPTISOL solutions prepared in Part A. The samples were mixed on a roller mixer at RT. After 1 hour, the pH of each sample was adjusted to 4.5 with 1N NaOH. Again, the samples were mixed on a roller mixer at RT. […] All samples were filtered through 0.22 μm PVDF filter. The olopatadine and budesonide in the aliquots were assayed by HPLC assay methods, respectively.

Structures can show the parent of a compound that is named as a salt.

For the compound `CCC(=O)OCC(=O)[C@@]1(OC(=O)CC)[C@@H](C)C[C@H]2[C@@H]3CCC4=CC(=O)C=C[C@]4(C)[C@@]3(Cl)[C@@H](O)C[C@@]21C` [Beclomethasone dipropionate, beclomethasone dipropionate], the “Binding Constant- K” value in series [1] was 684; in [2] it was 2862.
With `CCCC1O[C@@H]2C[C@H]3[C@@H]4CCC5=CC(=O)C=C[C@]5(C)[C@H]4[C@@H](O)C[C@]3(C)[C@]2(C(=O)CO)O1` (stereo partly drawn) [Budesonide, (R,S)-11β, 16α, 17, 21-tetrahydroxypregna-1,4-diene-3, 20-dione cyclic 16, 17-acetal with butyraldehyde], in series [3], the “Equilibrium complex stability constant with SBE-β-CD” value was found to be 1000 M⁻¹. Further, in [4], the “Equilibrium complex stability constant with SBE-γ-CD” value amounted to 2000 M⁻¹. Further, the “With/without CAPTISOL ratio of degradation rate constants” value in [5] was “less than 1”. Also, the “Overall solubility of BUD with increasing amount of AZ-HCl” value in series [6] is reported as “decreases”.
Regarding `CC1(C)O[C@@H]2C[C@H]3[C@@H]4C[C@H](F)C5=CC(=O)C=C[C@]5(C)[C@H]4[C@@H](O)C[C@]3(C)[C@]2(C(=O)CO)O1` [Flunisolide], the “Binding Constant- K” value came to 590 in series [1] and 1104 in series [2].
Take `CCC(=O)O[C@]1(C(=O)SCF)[C@H](C)C[C@H]2[C@@H]3C[C@H](F)C4=CC(=O)C=C[C@]4(C)[C@@]3(F)[C@@H](O)C[C@@]21C` [Fluticasone propionate, fluticasone propionate]: the results for the “Binding Constant- K” value in [1] and in [2] were 322 and 3338, respectively. Further, the “Concentration in solution (excess drug, filtered)” value in series [7] (citrate buffer pH 4.5) was 232 µg/mL; in [7] (phosphate buffer pH 6.0) it was 238 µg/mL.
With `C[C@]12CCC(=O)C=C1CC[C@@H]1[C@@H]2[C@@H](O)C[C@@]2(C)[C@H]1CC[C@]2(O)C(=O)CO` [Hydrocortisone], the “Binding Constant- K” value in [1] was determined as 1932; in series [2], 1430.
The matching figures for `C[C@@H]1C[C@H]2[C@@H]3CCC4=CC(=O)C=C[C@]4(C)[C@@]3(Cl)[C@@H](O)C[C@]2(C)[C@@]1(OC(=O)c1ccco1)C(=O)CCl` [Mometasone Fuorate]: 201 and 551.
The like results for `C[C@]12C=CC(=O)C=C1CC[C@@H]1[C@@H]2[C@@H](O)C[C@@]2(C)[C@H]1CC[C@]2(O)C(=O)CO` [Prednisolone] were, in that order, 1496 and 1653.
Consider `CC1(C)O[C@@H]2C[C@H]3[C@@H]4CCC5=CC(=O)C=C[C@]5(C)[C@@]4(F)[C@@H](O)C[C@]3(C)[C@]2(C(=O)CO)O1` [Triamcinolone acetonide, triamcinolone acetonide], for which the figures for the “Approximate Molar Ratio at Saturated Solubility of Corticosteroid (SAE-CD:corticosteroid)” value in series [8] (SAE-β-CD) and in series [8] (SAE-γ-CD) were 8.8 and 3.8, respectively.
`CN1CCCC(n2nc(Cc3ccc(Cl)cc3)c3ccccc3c2=O)CC1` (stereo not drawn) [azelastine HCL, azelastine hydrochloride]: the “Binding constant for SBE-β-CD relative to budesonide” value in series [3] (AZ-HCl versus BUD) is “approximately 10 fold”.
Take `CN(C)CC/C=C1/c2ccccc2COc2ccc(CC(=O)O)cc21` [olopatadine HCl]: the “Olopatadine HCl concentration” value in series [9] (Part B, all CAPTISOL concentrations (5, 7.5, 10% w/v), pH ~3.8) is > 6.6 mg/mL; in series [9] (Part C, pH adjusted to 4.5, CAPTISOL 5% w/v (precipitation)), 6.5 mg/mL; in series [9] (Part C, pH adjusted to 4.5, CAPTISOL 7.5 and 10% w/v), > 6.6 mg/mL.

Values taken from US12370352B2, “Nasal and ophthalmic delivery of aqueous corticosteroid solutions” (CyDex Pharmaceuticals, Inc., priority 2007, dated 2025).
